Laboratory results reported in US9622998B2, “Rapid-acting, blood-arginine-level-increasable oral preparation comprising citrulline and arginine” (Kyowa Hakko Bio Co., Ltd., priority 2007, dated 2017).

Tests used:
[1] = tested on: cGMP; assay: Plasma cGMP after oral administration to rabbits (Experimental Example 2); assay type: in vivo; conditions: male New Zealand rabbits, fasted 16 hr, oral by sonde, groups 1 and 2: 2.85 mmol/kg, group 3: 1.43 mmol/kg each
Protocol: (§1) 14-Week-old male New Zealand rabbits (KITAYAMA LABES Co., Ltd.) were purchased, preliminarily bred for 28 days and divided into 3 groups (n=3 or 4). After fasting for 16 hr, L-citrulline and L-arginine were orally administered to the rabbits of group 1 and group 2, respectively, by a sonde to achieve 2.85 mmol/kg per rabbit for both (499.3 mg/kg and 496.5 mg/kg, respectively). Moreover, L-citrulline and L-arginine were orally administered to the rabbits of group 3 by a sonde to achieve 1.43 mmol/kg per rabbit (250.5 mg/kg and 249.1 mg/kg, respectively).
(§2) The blood was collected from the ear vein before administration, and 30 min, 1, 2 and 4 hr after administration, and subjected to quantification of L-arginine, NO metabolite and cGMP in plasma. The blood was collected in a 1.5 mL tube containing 1% heparin dispensed thereto in advance (for quantification of L-arginine) and a disodium ethylenediaminetetraacetate (EDTA-2Na)-added tube (for quantification of NO metabolite and cGMP), and centrifuged (12000 rpm, 10 min, 4° C.) to give plasma. In heparin plasma thereafter, 3% sulfosalicylic acid in the same amount as the plasma was added and blended, and the mixture was stood still on ice for 1 hr and centrifuged (12000 rpm, 10 min, 4° C.) to give deproteinized plasma as a sample for analysis.
(§3) L-arginine in the sample for analysis was quantified using an automatic amino acid analyzer (JOEL JLC-500/V), NO metabolite (NOx:NO2+NO3) was quantified using a nitrogen oxide analyzer (Eicom ENO10), and cGMP was quantified by […] (Amersham Pharmacia RPN226).
(§4) Moreover, the area under the blood concentration-time curves of L-arginine, NO metabolite and cGMP in plasma were calculated, and the results are shown in Table 2-Table 4.

[2] = tested on: NO metabolite (NOx:NO2+NO3); assay: Plasma NO metabolite (NOx) after oral administration to rabbits (Experimental Example 2); assay type: in vivo; conditions: male New Zealand rabbits, fasted 16 hr, oral by sonde, groups 1 and 2: 2.85 mmol/kg, group 3: 1.43 mmol/kg each
Protocol: as §1, §2, §3, §4

SMILES | AUC of cGMP in plasma, 0-30 min [1] | AUC of cGMP in plasma, 0-1 hr [1] | AUC of NO metabolite in plasma, 0-30 min [2] | AUC of NO metabolite in plasma, 0-1 hr [2]
NC(=O)NCCC[C@H](N)C(=O)O [group 1, L-citrulline] | 0.033 nmol·h/mL | 0.12 nmol·h/mL | 8.1 nmol·h/mL | 25.7 nmol·h/mL
N=C(N)NCCC[C@H](N)C(=O)O [group 2, L-arginine] | 0.028 nmol·h/mL | 0.10 nmol·h/mL | 0.3 nmol·h/mL | 10.1 nmol·h/mL
